We go through one substance from US20030181436A1, “Treatment for AIDS, HIV, and other related diseases and compounds for use therewith” (priority 2001, published 2003).

This series deals with HeLa CD4 LTR B-gal cells. Description: Attachment assay, toxicity on sister plates by MTS. It is filed as cell-based. As to conditions: for TC50: attachment assay. The method, then: The attachment assay was performed with the HeLa CD4 LTR B-gal cells available from the AIDS Research and Reference Reagent Repository. […] HeLa CD4 LTR B-gal cells express cell surface CD4 and contain an LTR B-galactosidase reporter construct. Upon infection either the Tat protein incorporated into the virion or new Tat produced following virus integration and transcription trans-activate the LTR B-gal reporter, leading to expression of the B-galactosidase enzyme. HeLa CD4 LTR B-gal cells are routinely cultured with the required selection antibiotics and scrended for mycoplasma contamination. Twenty-four h prior to initiation of the assay cells were trypsinized, counted and 1×10^4 cells placed in a 0.2 cm well in media without selection antibiotics. Media was removed and compound media placed on the cells and incubated for 15 to 30 min at 37° C. A known titer of virus was then added to the wells and the incubation continued for 1 h. At the end of the incubation the wells were washed 6 times with media and the culture continued for 48 h. At 48 h the wells were washed one time with PBS and B-galactosidase enzyme expression determined by chemiluminescence per manufacturers instructions (Tropix Gal-screen TM, Tropix, Bedford, Mass.). Compound toxicity was monitored on sister plates using MTS dye reduction.

In the case of Zinc Iodiscorbate [Compound Z], the TC50 entry is given as “greater than 100 μg/mL”. In addition, the “TOXICITY VALUES (Colt Titer) MEAN” value (0.32 μG/Ml) was 0.989 O. D. For the setting “1 μG/Ml”, the “TOXICITY VALUES (Colt Titer) MEAN” value was found to be 0.989 O. D. Also, for the setting “3.2 μG/Ml”, the “TOXICITY VALUES (Colt Titer) MEAN” value is recorded as 0.989 O. D. Also, the “TOXICITY VALUES (Colt Titer) MEAN” value (10 μG/Ml) turned out to be 0.989 O. D. In addition, for the setting “32 μG/Ml”, the “TOXICITY VALUES (Colt Titer) MEAN” value is 0.989 O. D. Besides, where the note is “100 μG/Ml”, the “TOXICITY VALUES (Colt Titer) MEAN” value is recorded as 0.989 O. D. For the same substance, the TC50 result (listed as COMPOUND Z) is listed as “TC50 (μG/mL) + >100 μg/mL”.
